Source: the supplement of paper PMC12137928
Counter-ions that a name gives are not always drawn.

Tested on: HCT116
Conditions: 72 h
In short: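 HCT116 cells were seeded at 250 per well in 1536-well plates and left 5 h to attach. CellTiter-Glo luminescence was scaled to vehicle (0%) and positive control (-100%), then pattern-corrected. IC50 and maximal efficacy came from four-parameter Hill fits.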

Row | IC50 cell viability (ICRF193 0 nM) [µM] | IC50 cell viability (ICRF193 200 nM) [µM] | Compound
1 | > 45.8 | > 45.8 | CC(C)(C(=O)c1cccnc1)c1cccnc1 [Metyrapone]
2 | > 45.8 | > 45.8 | C[C@H]1COc2c(C3(N)CC3)c(F)cc3c(=O)c(C(=O)O)cn1c23 [Pazufloxacin]
3 | > 45.8 | > 45.8 | C[C@H]1CN(C[C@H](Cc2ccccc2)C(=O)NCC(=O)O)CC[C@@]1(C)c1cccc(O)c1 [Alvimopan]
4 | > 45.8 | > 45.8 | CC1(C)S[C@@H]2[C@H](NC(=O)[C@H](N)c3ccccc3)C(=O)N2[C@H]1C(=O)O [AMPICILLIN SODIUM]
5 | > 45.8 | > 45.8 | Nc1ccc(S(=O)(=O)Nc2ccnn2-c2ccccc2)cc1 [Sulfaphenazole]
6 | > 45.8 | > 45.8 | CCOCCn1c(N2CCCN(C)CC2)nc2ccccc21 [Emedastine difumarate]
7 | > 45.8 | > 45.8 | CCCC(CCC)C(=O)O [Valproic acid sodium salt]
8 | > 45.8 | > 45.8 | N=C(N)Nc1ccc(C(=O)Oc2ccc3cc(C(=N)N)ccc3c2)cc1 [Nafamostat mesilate]
9 | > 45.8 | > 45.8 | CCCC(=O)O[C@]1(C(=O)COC(C)=O)CC[C@H]2[C@@H]3C[C@H](F)C4=CC(=O)C=C[C@]4(C)[C@@]3(F)[C@@H](O)C[C@@]21C [Difluprednate]
10 | > 45.8 | > 45.8 | CC(COc1ccccc1)N(CCCl)Cc1ccccc1 (stereo not drawn) [Phenoxybenzamine hydrochloride]
11 | > 45.8 | > 45.8 | CCOC(=O)CN[C@@H](C(=O)N1CC[C@H]1C(=O)NCc1ccc(/C(N)=N\O)cc1)C1CCCCC1 [Ximelagatran]
12 | > 45.8 | > 45.8 | O=C([O-])[C@H]1/C(=C/CO)O[C@@H]2CC(=O)N21.[Li+] [CLAVULANATE LITHIUM]
13 | > 45.8 | > 45.8 | CCN(CC)CCNC(=O)c1cc(Cl)c(N)cc1OC [Metoclopramide]
14 | > 45.8 | > 45.8 | CC(C(=O)O)c1ccc2c(c1)Cc1cccnc1O2 (stereo not drawn) [Pranoprofen]
15 | > 45.8 | > 45.8 | CC(=O)O[C@H]1C[C@@]2(C)[C@@H](C[C@@H](O)[C@H]3[C@@]4(C)CC[C@@H](O)[C@@H](C)[C@@H]4CC[C@@]32C)/C1=C(\CCC=C(C)C)C(=O)O [Fusidic Acid (sodium salt)]
16 | > 45.8 | > 45.8 | CN1CCC(OC(c2ccccc2)c2ccccc2)CC1 [Diphenylpyraline hydrochloride]
17 | > 45.8 | > 45.8 | C[C@H](CCC(=O)O)[C@H]1CC[C@H]2[C@@H]3[C@@H](O)C[C@@H]4C[C@H](O)CC[C@]4(C)[C@H]3CC[C@]12C [Ursodiol]
18 | > 45.8 | > 45.8 | CC(=O)OCC(=O)[C@@]1(O)[C@H](C)C[C@H]2[C@@H]3CCC4=CC(=O)C=C[C@]4(C)[C@@]3(F)[C@@H](O)C[C@@]21C [Dexamethasone acetate]
19 | > 45.8 | > 45.8 | Nc1nc(NC2CC2)c2ncn([C@H]3C=C[C@@H](CO)C3)c2n1 [ABACAVIR SULFATE]
20 | > 45.8 | > 45.8 | CCCc1cc(=O)[nH]c(=S)[nH]1 [Propylthiouracil]
21 | > 45.8 | > 45.8 | CN(C)CCC(c1ccccc1)c1ccccn1 (stereo not drawn) [Pheniramine maleate]
22 | > 45.8 | > 45.8 | C[C@]12CC[C@@H]3c4ccc(O)cc4CC[C@H]3[C@@H]1CC[C@@H]2OC(=O)CCC1CCCC1 [Estradiol cypionate]
23 | > 45.8 | > 45.8 | CCCCOc1ccc(OCCCN2CCOCC2)cc1 [Pramoxine hydrochloride]
24 | > 45.8 | > 45.8 | O=C(O)CCCc1ccccc1 [Sodium 4-phenylbutyrate]
25 | > 45.8 | > 45.8 | C[C@]12C=CC(=O)C=C1CC[C@@H]1[C@@H]2[C@@H](O)C[C@@]2(C)[C@H]1CC[C@]2(O)C(=O)COC(=O)CCC(=O)O [PREDNISOLONE HEMISUCCINATE]

Row | IC50 cell viability (ICRF193 0 nM) [µM] | IC50 cell viability (ICRF193 200 nM) [µM] | Compound
26 | > 45.8 | > 45.8 | NCC[C@H](O)C(=O)N[C@@H]1C[C@H](N)[C@@H](O[C@H]2O[C@H](CN)[C@@H](O)[C@H](O)[C@H]2O)[C@H](O)[C@H]1O[C@H]1O[C@H](CO)[C@@H](O)[C@H](N)[C@H]1O [Amikacin]
27 | > 45.8 | > 45.8 | CCN(CC)CCNC(=O)c1ccc(N)cc1 [Procainamide]
28 | > 45.8 | > 45.8 | OC[C@H]1O[C@@H](O[C@@H]2[C@@H](CO)OC(O)(CO)[C@H]2O)[C@H](O)[C@@H](O)[C@H]1O (mixture of isomers) [Lactulose]
29 | > 45.8 | > 45.8 | CNCCc1ccccn1 [Betahistine mesylate]
30 | > 45.8 | > 45.8 | O=C1c2c(O)cccc2C([C@@H]2O[C@H](CO)[C@@H](O)[C@H](O)[C@H]2O)c2cc(CO)cc(O)c21 (stereo partly drawn) [ALOIN]
31 | > 45.8 | > 45.8 | CCN[C@H]1CN(CCCOC)S(=O)(=O)c2sc(S(N)(=O)=O)cc21 [Brinzolamide]
32 | > 45.8 | > 45.8 | Fc1ccc([C@@H]2CCNC[C@H]2COc2ccc3c(c2)OCO3)cc1 [Paroxetine]
33 | > 45.8 | > 45.8 | CCCCCCCCCCCCOS(=O)(=O)[O-].[Na+] [Sodium dodecyl sulfate]
34 | > 45.8 | > 45.8 | CC(=O)Oc1cccc(O)c1 [Resorcinol monoacetate]
35 | > 45.8 | > 45.8 | CCCCCCCCCCOc1cc2c(O)c(C(=O)OCC)cnc2cc1OCC [Decoquinate]
36 | > 45.8 | > 45.8 | O=C(OCC(O)CO)c1ccccc1Nc1ccnc2cc(Cl)ccc12 (stereo not drawn) [Glafenine hydrochloride]
37 | > 45.8 | > 45.8 | CCC[C@@H]1C[C@@H](C(=O)N[C@@H]([C@H]2O[C@H](SC)[C@H](OP(=O)(O)O)[C@@H](O)[C@H]2O)[C@H](C)Cl)N(C)C1 [Clindamycin Phosphate]
38 | > 45.8 | > 45.8 | CCOc1c(N2CCOCC2)cnn(C)c1=O [Emorfazone]
39 | > 45.8 | > 45.8 | CC1(C)O[C@H]2CC(=O)OC[C@]23[C@H]2CC[C@@]4(C)[C@H](c5ccoc5)OC(=O)[C@H]5O[C@]54[C@]2(C)C(=O)C[C@@H]13 [Limoni]
40 | > 45.8 | > 45.8 | CCC(=O)O[C@]1(C(=O)COC(C)=O)CC[C@H]2[C@@H]3C[C@H](C)C4=CC(=O)C=C[C@]4(C)[C@H]3[C@@H](O)C[C@@]21C [Methylprednisolone aceponate]
41 | > 45.8 | > 45.8 | O=C(O)CCCN1CCC(O[C@@H](c2ccc(Cl)cc2)c2ccccn2)CC1 [Bepotastine (Beslilate)]
42 | > 45.8 | > 45.8 | Cc1onc(-c2ccccc2)c1C(=O)N[C@@H]1C(=O)N2[C@@H]1SC(C)(C)[C@@H]2C(=O)O [Oxacillin sodium]
43 | > 45.8 | > 45.8 | CCCc1nn(C)c2c(=O)[nH]c(-c3cc(S(=O)(=O)N4CCN(C)CC4)ccc3OCC)nc12 [Sildenafil citrate]
44 | > 45.8 | > 45.8 | O=S(=O)(O)c1ccc(O)cc1 [4-Phenolsulfonic acid]
45 | > 45.8 | > 45.8 | O=C(c1ccccc1)C(O)c1ccccc1 (stereo not drawn) [Benzoin]
46 | > 45.8 | > 45.8 | CC(C)[C@@H]1CC[C@@H](C)CC1=O [(2S,5R)-5-Methyl-2-(propan-2-yl)cyclohexanone]
47 | > 45.8 | > 45.8 | CCOC(=O)c1ccc(O)cc1 [Ethylparaben]
48 | > 45.8 | > 45.8 | CN1[C@@H]2CC[C@H]1C[C@@H](OC(=O)c1c[nH]c3ccccc13)C2 [Tropisetron]
49 | > 45.8 | > 45.8 | CCCC(=O)O[C@]1(C(=O)COC(=O)CC)CC[C@H]2[C@@H]3CCC4=CC(=O)CC[C@]4(C)[C@H]3[C@@H](O)C[C@@]21C [Hydrocortisone buteprate]
50 | > 45.8 | > 45.8 | CC(=O)OCC(=O)[C@@]1(O)CC[C@H]2[C@@H]3CCC4=CC(=O)CC[C@]4(C)[C@H]3C(=O)C[C@@]21C [Cortisone acetate]

Row | Compound | IC50 cell viability (ICRF193 0 nM) [µM] | IC50 cell viability (ICRF193 200 nM) [µM]
51 | COc1ccc(CN2CCNCC2)c(OC)c1OC [Trimetazidine dihydrochloride] | > 45.8 | > 45.8
52 | c1ccc(C2(c3ccccc3)CC2C2=NCCN2)cc1 (stereo not drawn) [Cibenzoline succinate] | > 45.8 | > 45.8
53 | CC(C)(C)NCC(O)c1cc(Cl)c(N)c(Cl)c1 (stereo not drawn) [Clenbuterol] | > 45.8 | > 45.8
54 | CC(C)=CCN1CC[C@]2(C)c3cc(O)ccc3C[C@H]1[C@H]2C [(+)-Pentazocine succinate] | > 45.8 | > 45.8
55 | NCC(CC(=O)O)c1ccc(Cl)cc1 (stereo not drawn) [Baclofen] | > 45.8 | > 45.8
56 | CCCCCCCCCC(=O)O[C@H]1CC[C@H]2[C@@H]3CCC4=CC(=O)CC[C@@H]4[C@H]3CC[C@]12C [Nandrolone decanoate] | > 45.8 | > 45.8
57 | COC(COC(N)=O)C1=C(N2CC2)C(=O)C(C)=C(N2CC2)C1=O (stereo not drawn) [Carboquone] | > 45.8 | > 45.8
58 | C[C@]12CC[C@H]3[C@@H](CCC4=CC(=O)CC[C@@H]43)[C@@H]1CC[C@@H]2OC(=O)CCc1ccccc1 [Nandrolone phenpropionate] | > 45.8 | > 45.8
59 | COP(=O)(OC)OC=C(Cl)Cl [Dichlorvos] | > 45.8 | > 45.8
